In patent US8017612B2, “Piperazine compound and use thereof as a HCV polymerase inhibitor” (priority 2006, dated 2011):

Key:
[1] = target: T1, HCV polymerase (NS5B) type 1a (Hepatitis C virus genotype 1a, UniProt P26664); test: Assay of enzyme (HCV polymerase) inhibitory activity, type 1a enzyme; type: biochemical, HCV type 1a (cloned from the blood of patients); conditions: HCV polymerase inhibitory activity (IC50), 1a, type 1a enzyme 1.5 μg/ml, 25° C., 60 min
T1 construct: made in house; host or cells: Escherichia coli (by the 'similar method' of the 1b enzyme)
Outline: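 NS5B Δ47 C-term His6 (type 1a, 1.5 μg/ml); substrate RNA 5 μg/ml; ATP/GTP/CTP 50 μM, UTP 2 μM + [5,6-3H]UTP; Tris pH 7.5, MgCl2 5 mM; 25° C, 60 min. TCA/pyrophosphate stop, GF/B filter, scintillation. IC50 vs no-compound control.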

[2] = target: T2, HCV polymerase (NS5B) type 1b (Hepatitis C virus genotype 1b, UniProt P26663); test: Assay of enzyme (HCV polymerase) inhibitory activity, type 1b enzyme; type: biochemical, HCV BK strain (type 1b); conditions: HCV polymerase inhibitory activity (IC50), 1b, type 1b enzyme 0.5 μg/ml, 25° C., 60 min
T2 construct: a region encoding NS5B (J Virol 1991 March, 65(3), 1105-13, 544 amino acids after deletion of 47 amino acids on the C-terminal); 6xHis (C); made in house; host or cells: Escherichia coli
Outline: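 Rxn: NS5B 1b (BK, ΔC47, His6) 0.5 μg/ml; substrate RNA 5 μg/ml; ATP/GTP/CTP 50 μM, UTP 2 μM + [5,6-3H]UTP; 20 mM Tris pH 7.5, 5 mM MgCl2, 50 mM NaCl, 1 mM EDTA/DTT. 25 °C, 60 min. Stop with TCA/pyrophosphate, filter, scintillation count; IC50 vs. untreated.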

## CC(=O)N1CCN(S(=O)(=O)c2ccc(C(C)C)cc2)[C@@H](C(=O)NCc2ccc(C(C)(C)CO)cc2)C1 [Example 169, (R)-4-acetyl-1-(4-isopropyl-benzenesulfonyl)-piperazine-2-carboxylic acid 4-(2-hydroxy-1,1-dimethyl-ethyl)-benzylamide]
[1]
  IC50: > 1000 nM
[2]
  IC50: > 1000 nM

## CCOC(=O)c1csc(N2CCN(S(=O)(=O)c3ccc(C(C)C)cc3)C(C(=O)NCc3ccc(C(F)(F)F)cc3)C2)n1 (stereo not shown) [Example 170, 2-[4-(4-isopropyl-benzenesulfonyl)-3-(4-trifluoromethyl-benzylcarbamoyl)-piperazin-1-yl]-thiazole-4-carboxylic acid ethyl ester]
[1]
  IC50: > 1000 nM
[2]
  IC50: > 1000 nM

## CC(C)c1ccc(S(=O)(=O)N2CCN(c3nc(C(=O)O)cs3)CC2C(=O)NCc2ccc(C(F)(F)F)cc2)cc1 (stereo not shown) [Example 171, 2-[4-(4-isopropyl-benzenesulfonyl)-3-(4-trifluoromethyl-benzylcarbamoyl)-piperazin-1-yl]-thiazole-4-carboxylic acid]
[1]
  IC50: > 1000 nM
[2]
  IC50: > 1000 nM

## CC(C)c1ccc(CNC(=O)[C@H]2CN(C(=O)Cc3ccccc3)CCN2S(=O)(=O)c2ccc(C(F)(F)F)cc2)cc1 [Example 172, (R)-4-phenylacetyl-1-(4-trifluoromethyl-benzenesulfonyl)-piperazine-2-carboxylic acid 4-isopropyl-benzylamide]
[1]
  IC50: > 1000 nM
[2]
  IC50: 100 to 1000 nM

## COC(=O)CCC(=O)N1CCN(S(=O)(=O)c2ccc(C(F)(F)F)cc2)[C@@H](C(=O)NCc2ccc(C(C)C)cc2)C1 [Example 173, 4-[(R)-3-(4-isopropyl-benzylcarbamoyl)-4-(4-trifluoromethyl-benzenesulfonyl)-piperazin-1-yl]-4-oxo-butyric acid methyl ester]
[1]
  IC50: 100 to 1000 nM
[2]
  IC50: 100 to 1000 nM

## COC(=O)CCCC(=O)N1CCN(S(=O)(=O)c2ccc(C(F)(F)F)cc2)[C@@H](C(=O)NCc2ccc(C(C)C)cc2)C1 [Example 174, 5-[(R)-3-(4-isopropyl-benzylcarbamoyl)-4-(4-trifluoromethyl-benzenesulfonyl)-piperazin-1-yl]-5-oxo-pentanoic acid methyl ester]
[1]
  IC50: 100 to 1000 nM
[2]
  IC50: 100 to 1000 nM

## CC(C)c1ccc(CNC(=O)[C@H]2CN(C(=O)Cc3cccnc3)CCN2S(=O)(=O)c2ccc(C(F)(F)F)cc2)cc1 [Example 175, (R)-4-(2-pyridin-3-yl-acetyl)-1-(4-trifluoromethyl-benzenesulfonyl)-piperazine-2-carboxylic acid 4-isopropyl-benzylamide]
[1]
  IC50: 100 to 1000 nM
[2]
  IC50: 100 to 1000 nM

## CC(=O)N1CCN(S(=O)(=O)c2ccc(C(F)(F)F)cc2)[C@@H](C(=O)NCc2ccc(C(C)C)cc2)C1 [Example 176, (R)-4-acetyl-1-(4-trifluoromethyl-benzenesulfonyl)-piperazine-2-carboxylic acid 4-isopropyl-benzylamide]
[1]
  IC50: 100 to 1000 nM
[2]
  IC50: 100 to 1000 nM

## CCNC(=O)N1CCN(S(=O)(=O)c2ccc(C(F)(F)F)cc2)[C@@H](C(=O)NCc2ccc(C(C)C)cc2)C1 [Example 177, (R)-4-(4-trifluoromethyl-benzenesulfonyl)-piperazine-1,3-dicarboxylic acid 1-ethylamide 3-(4-isopropyl-benzylamide)]
[1]
  IC50: 100 to 1000 nM
[2]
  IC50: 100 to 1000 nM

## CC(C)c1ccc(CNC(=O)[C@H]2CN(C(=O)Nc3ccccc3)CCN2S(=O)(=O)c2ccc(C(F)(F)F)cc2)cc1 [Example 178, (R)-4-(4-trifluoromethyl-benzenesulfonyl)-piperazine-1,3-dicarboxylic acid 3-(4-isopropyl-benzylamide) 1-phenylamide]
[1]
  IC50: 100 to 1000 nM
[2]
  IC50: 100 to 1000 nM

## CC(C)c1ccc(CNC(=O)[C@H]2CN(C3=NCCS3)CCN2S(=O)(=O)c2ccc(C(F)(F)F)cc2)cc1 [Example 179, (R)-4-(4,5-dihydro-thiazol-2-yl)-1-(4-trifluoromethyl-benzenesulfonyl)-piperazine-2-carboxylic acid 4-isopropyl-benzylamide]
[1]
  IC50: 100 to 1000 nM
[2]
  IC50: 100 to 1000 nM

## CC(C)c1ccc(CNC(=O)[C@H]2CN(C(=O)CN3CCOCC3)CCN2S(=O)(=O)c2ccc(C(F)(F)F)cc2)cc1 [Example 180, (R)-4-(2-morpholin-4-yl-acetyl)-1-(4-trifluoromethyl-benzenesulfonyl)-piperazine-2-carboxylic acid 4-isopropyl-benzylamide]
[1]
  IC50: > 1000 nM
[2]
  IC50: 100 to 1000 nM

## CC(=O)N1CCN(S(=O)(=O)c2ccc(C(C)C)cc2)C(C(=O)NCc2ccc(N(C)CCO)cc2)C1 (stereo not shown) [Example 181, 4-acetyl-1-(4-isopropyl-benzenesulfonyl)-piperazine-2-carboxylic acid 4-[(2-hydroxy-ethyl)-methyl-amino]-benzylamide]
[1]
  IC50: > 1000 nM
[2]
  IC50: > 1000 nM

## CC(=O)N1CCN(S(=O)(=O)c2ccc(C(C)C)cc2)[C@@H](C(=O)NCc2ccc(Br)cc2Cl)C1 [Example 182, (R)-4-acetyl-1-(4-isopropyl-benzenesulfonyl)-piperazine-2-carboxylic acid 4-bromo-2-chloro-benzylamide]
[1]
  IC50: 100 to 1000 nM
[2]
  IC50: 100 to 1000 nM

## CC(=O)N1CCN(S(=O)(=O)c2ccc(C(C)C)cc2)[C@@H](C(=O)NCc2ccc(C(C)C)cc2Cl)C1 [Example 183, (R)-4-acetyl-1-(4-isopropyl-benzenesulfonyl)-piperazine-2-carboxylic acid 2-chloro-4-isopropyl-benzylamide]
[1]
  IC50: 100 to 1000 nM
[2]
  IC50: 100 to 1000 nM

## Cc1csc(N2CCN(S(=O)(=O)c3ccc(C(F)(F)F)cc3)[C@@H](C(=O)NCc3ccc(C(C)C)cc3)C2)n1 [Example 184, (R)-4-(4-methyl-thiazol-2-yl)-1-(4-trifluoromethyl-benzenesulfonyl)-piperazine-2-carboxylic acid 4-isopropyl-benzylamide]
[1]
  IC50: 100 to 1000 nM
[2]
  IC50: 100 to 1000 nM

## CC(=O)NCC(=O)N1CCN(S(=O)(=O)c2ccc(C(F)(F)F)cc2)[C@@H](C(=O)NCc2ccc(C(C)C)cc2)C1 [Example 185, (R)-4-(2-acetylamino-acetyl)-1-(4-trifluoromethyl-benzenesulfonyl)-piperazine-2-carboxylic acid 4-isopropyl-benzylamide]
[1]
  IC50: > 1000 nM
[2]
  IC50: 100 to 1000 nM

## CC(C)c1ccc(CNC(=O)[C@H]2CN(C(=O)CCNC(=O)OC(C)(C)C)CCN2S(=O)(=O)c2ccc(C(F)(F)F)cc2)cc1 [Example 186, {3-[(R)-3-(4-isopropyl-benzylcarbamoyl)-4-(4-trifluoromethyl-benzenesulfonyl)-piperazin-1-yl]-3-oxo-propyl}-carbamic acid tert-butyl ester]
[1]
  IC50: > 1000 nM
[2]
  IC50: 100 to 1000 nM

## CC(C)c1ccc(CNC(=O)[C@H]2CN(C(=O)CCC(=O)O)CCN2S(=O)(=O)c2ccc(C(F)(F)F)cc2)cc1 [Example 187, 4-[(R)-3-(4-isopropyl-benzylcarbamoyl)-4-(4-trifluoromethyl-benzenesulfonyl)-piperazin-1-yl]-4-oxo-butyric acid]
[1]
  IC50: > 1000 nM
[2]
  IC50: > 1000 nM

## CC(=O)NCCC(=O)N1CCN(S(=O)(=O)c2ccc(C(F)(F)F)cc2)[C@@H](C(=O)NCc2ccc(C(C)C)cc2)C1 [Example 188, (R)-4-(3-acetylamino-propionyl)-1-(4-trifluoromethyl-benzenesulfonyl)-piperazine-2-carboxylic acid 4-isopropyl-benzylamide]
[1]
  IC50: 100 to 1000 nM
[2]
  IC50: 100 to 1000 nM
